Measurements published in PubChem BioAssay AID179 (DTP/NCI, 2004).
Where “and” joins values, the source holds several entries; their conditions need not be identical. Equal entries are not always repeated. Calls of active or inactive are those of the source.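 How the source made its calls: active means compounds giving half or more protection of infected cells from virus-caused growth loss, again on retest; inactive means the rest.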 Where a SMILES comes first, the peptide text is derived from it. The star is where a group is joined. OSu = O=C1CCC(=O)N1O*; Bn = c1ccc(C*)cc1

Test system: CEM cells HIV-1 protection, formazan growth assay
Assay: NCI AIDS Antiviral Assay
Details: for IC50: measured here: growth of uninfected CEM cells
Outline: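 Protection of CEM cells against HIV-1 was scored from cell growth (soluble formazan) across five concentrations, with parallel uninfected cells. Lack of protection may reflect toxicity.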

SMILES	outcome	EC50 [µM]	IC50
Nc1ccc(N=Nc2ccc(-c3ccc(N=Nc4ccc(N)c5cc(S(=O)(=O)O)ccc45)cc3)cc2)c2ccc(S(=O)(=O)O)cc12	active		
CCOC(=O)[C@@]12C[C@](/C=C/OC)(O[Si](C)(C)C)[C@@]13c1cc(OC)c(OC)cc1CCN3C(=O)C2=O		> 200	> 200 µM
CC(=O)Oc1ccccc1C(=O)O		> 380	> 380 µM
O=Cc1ccc(/C=C2\C=Cc3ccccc32)cc1		> 58.9	> 58.9 µM
COC(=O)c1cc(C(=O)OC)c(C/C(=N/NC(N)=S)C(=O)Nc2ccc(Cl)c(Cl)c2)nc1C/C(=N/NC(N)=S)C(=O)Nc1ccc(Cl)c(Cl)c1		> 200	> 200 µM
N#CC1Sc2ccccc2-n2cccc21 (stereo unspecified)	inactive		
O=c1c(O)c(O)c1=O	inactive		
NCCOc1c2occc2cc2ccc(=O)oc12		> 275	20.4 µM
C[C@H](CCCN1CCCCC1)[C@H]1CC[C@H]2[C@@H]3CC[C@@H]4C[C@H](O)CC[C@]4(C)[C@H]3CC[C@]12C		> 50.1	1.82 µM
CC1(C)CC2(C)ON=C(c3ccccc3)N2c2ccccc2N1 (stereo unspecified)		57.5	105 µM
NC(=S)N/N=C/c1c(O)c2cc(Cl)ccc2[nH]c1=O		> 200	93.3 µM
CN1C(=O)N/C(=N/c2nc(Cc3ccc4c(c3)OCO4)cn2C)C1=O		> 1.58	> 1.58 µM
NCC1OC(OC2C(N)CC(N)C(O)C2OC2OC(CO)C(O)C2O)C(N)C(O)C1O (stereo unspecified)	inactive		
Cc1c(C#N)c(=N)oc2ccccc12		> 200	115 µM
COc1ccc(-c2cc(=O)c3c(OC)c(OC)c(OC)c(OC)c3o2)cc1OC		> 200	33.9 µM
Clc1ccc(C(SCc2ccccc2)SCc2ccccc2)cc1		> 200	> 200 µM
COc1cc(N/N=C/C#N)cc(OC)c1OC		> 45.7	2.24 µM
NC(N)=NCCCC(N)C(=O)O (stereo unspecified)		> 200	> 200 µM
COc1cccc(CN2CC(C)N(N=Cc3c4c(O)c5c(O)c(C)c6c(c5c3O)C(=O)C(C)(O/C=C/C(OC)C(C)C(OC(C)=O)C(C)C(O)C(C)C(O)C(C)/C=C/C=C(\C)C(=O)N4)O6)C(C)C2)c1 (stereo unspecified)		> 200	7.24 µM
N#Cc1ccccc1/C=N/O		> 35.5	> 35.5 µM
NC(Cc1ccc(OCc2ccccc2)cc1)C(=O)NC(Cc1ccccc1)C(=O)ON1C(=O)CCC1=O (stereo unspecified) (H-Tyr(Bn)-Phe-OSu; configuration not given here)	inactive		

SMILES	outcome	EC50 [µM]	IC50
COc1cc(/C=N\NC(=O)C[N+](C)(C)C)cc(OC)c1OC		> 200	> 200 µM
COc1cc(OC)c(OC)cc1/C=C/c1cc[n+](C)c2ccccc12		> 200	7.59 µM
O=C(CC(=O)N(C(=O)c1ccccc1)c1ccc(Cl)cc1)N/N=C\c1ccccc1O		> 200	> 200 µM
N#CC(NNC(=O)c1ccccc1O)c1c(O)ccc2ccccc12 (stereo unspecified)		> 40.7	3.8 µM
CNc1ccc(Cl)cc1S(=O)(=O)c1ccc([N+](=O)[O-])cc1		> 200	> 200 µM
Cc1cc(SSc2cc(C)c3ccccc3n2)nc2ccccc12		> 200	110 µM
Cc1cc(Cl)ccc1NC(=O)CCCC(=O)C1C/C(=N/O)CC/C1=N\O (stereo unspecified)		> 95.5	> 95.5 µM
COc1cc(-c2[o+]c3cc(O)cc(O)c3cc2O)cc(O)c1O		> 200	15.1 µM
NC(=O)NC(S(=O)(=O)O)S(=O)(=O)O	inactive		
COc1ccc(P2(=S)Oc3ccc(C(c4ccccc4)(c4ccccc4)c4ccccc4)cc3O2)cc1 (stereo unspecified)	inactive		
c1ccc(C[n+]2ccc3c(c2)CCCC3)cc1		> 200	40.7 µM
Brc1cccc(N=NN2CCCC2)c1		> 200	36.3 µM
N#C/C(=N/Nc1nc[nH]c1C(N)=O)C(=O)Nc1ccccc1		> 200	1.07 µM
CSc1c(C#N)c(S)n(-c2ccc(Cl)cc2)c(=O)c1C#N		> 200	52.5 µM
CSc1nc2c(=O)n(-c3ccccc3)c(=S)n(-c3ccccc3)c2s1		> 200	117 µM
c1ccc2nc3c(nc2c1)sc1nc2ccccc2n13		> 200	> 200 µM
COC(=O)C1=NC(=N)N=C(C(=O)OC)C12C(=O)Cc1ccccc12 (stereo unspecified)		339	398 µM
C/C=C1\[C@H]2C=C(C)C[C@@]1(N)c1ccc(=O)[nH]c1[C@@H]2O		> 479	> 479 µM
CCCN(CCC)C(=O)Cc1c2n(c3ccccc13)Cc1ccccc1-2		> 15.1	5.89 µM
NC(=O)N/N=C(\Cc1nc2ccc(C(=O)c3ccccc3)cc2[nH]c1=O)C(=O)Nc1ccc(Br)cc1	inactive		
CCCCCC/C=C\CCCCCCCCCc1cc(O)cc(OC)c1O		> 13.8	5.01 µM

SMILES	outcome	EC50 [µM]	IC50
O=C(O)c1ccc(C2SCc3nc4ccccc4n32)cc1 (stereo unspecified)		> 200	> 200 µM
COc1ccc(/C=C(\C)C=O)cc1		> 204	> 204 µM
Cc1ccc(OCC2OC(n3cnc4c(Cl)ncnc43)CC2Oc2ccc(C)cc2)cc1 (stereo unspecified)		> 200	6.92 µM and 12.3 µM
CC(C)(C)CP(=S)(CC(C)(C)C)CC(C)(C)C		> 117	> 117 µM
COc1cc(-c2nc(SC)nc3c2CCc2ccccc2-3)cc(OC)c1OC		> 200	> 200 µM
COc1ccc(NC(=O)CC(=O)n2nc(-c3ccccc3)c(N=Nc3ccccc3C(=O)O)c2-c2ccccc2)cc1		> 17.8	> 17.8 µM
COc1cc2c(cc1OC)C(=O)C1(C2)[C@H](c2ccccc2)C2C(=O)c3cc(OC)c(OC)cc3C2[C@H]1c1ccccc1 (stereo partly specified)		> 200	> 200 µM
CCOC(=O)c1sc2nc(SC)nc3c2c1NCN3C		> 200	> 200 µM
CN1C=COC1N=C1CCCCC1 (stereo unspecified)		> 200	> 200 µM
COC(=O)C1CCC(=O)N1C(c1ccc(OC)cc1)c1cc(OC)c(OC)c(OC)c1 (stereo unspecified)		> 2	0.1 µM
COC(=O)[C@]1(C)CCC[C@]2(C)C3CC4OOC3(C=C4C(C)(C)O)CCC21 (stereo partly specified)		> 251	38.9 µM
C=CCCCCCCCCCOC1C=CC(OC(C)=O)C(COC(C)=O)O1 (stereo unspecified)		> 200	63.1 µM
CC(=O)c1c(-c2ccc(Cl)cc2)c(C#N)c(=S)n(C2OC(CO)C(O)C(O)C2O)c1-c1ccccc1 (stereo unspecified)		> 200	28.2 µM and 14.1 µM
Cc1c(C)c2ccc(OCC(O)COC(C)C)c(C)c2oc1=O (stereo unspecified)		> 200	32.4 µM
C=CCP(=O)(CC=C)C(Cl)Cl		> 200	> 200 µM
COc1cc([C@@H]2c3cc4c(cc3[C@@H](OC3OC5CO[C@@H](c6cccs6)OC5C(O)C3O)[C@H]3COC(=O)[C@H]23)OCO4)cc(OC)c1O (stereo partly specified)		> 0.398	0.00174 µM
CCCCCC/C=C/CCCCCCCc1cccc(O)c1C(=O)O		> 102	63.1 µM
CC(C)[Si](OC1=CCCCCC12C(=O)N(C)c1ccccc12)(C(C)C)C(C)C (stereo unspecified)		> 200	33.9 µM
CCOC(=O)c1nc2cc(Cl)ccc2[nH]c1=O		> 200	105 µM
O=C(O)C(O)C(O)C(=O)O (stereo unspecified)		> 200	> 200 µM
